System: anesthetized open-chest dogs
Assay: Hemodynamics of anesthetized open-chest dogs, intravenous infusion
Format: in vivo, mongrel dogs
Conditions: 0.15 mg/kg iv
Protocol: The animals were anesthetized by intravenous injection of 30 mg/kg sodium pentobarbital, tracheally intubated, and mechanically ventilated with positive air pressure. Left thoracotomy was performed through the fourth intercostal space and the heart was suspended in a pericardial cradle, the aortic root was isolated and a probe of blood flow meter (12 or 14 mm in diameter) was fixed to measure the aortic blood flow as a representation of cardiac output (CO), the circumflex branch of left coronary artery was isolated and a probe of blood flow meter (2 or 2.5 mm in diameter) was fixed to measure the coronary blood flow (CBF). A polyethylene catheter filled with heparin physiological saline was inserted through cardiac apex into the left ventricle to measure the left ventricular pressure (LVP) and left ventricular end-diastolic pressure (LVEDP), Peak positive and peak negative first derivatives of the LVP (+ LVdp/dt and − LVdp/dt) were calculated with the Acknowledge software. The systolic blood pressure (SBP), diastolic blood pressure (DBP) and mean arterial pressure (MAP) were measured by polyethylene catheter via the femoral artery, ECG □ was measured by a AC-601G ECG amplifier. The above-mentioned analog signal was input into a data acquisition workstation (MP100, BIOPAC Systems, USA) to a computer running Acknowledge (version 3.7.1).
After surgery, various indexes before administration were recorded until the indexes were stable, and then intravenous infusion administration was conducted. Thirty dogs were divided into five groups (six dogs in each group), the experiment groups were given 0.15, 0.3, 0.6 mg/kg of ASP-[…] respectively, the normal control group was given 1 ml/kg of solvent, and the positive control group was given 0.3 mg/kg of astragaloside IV. The delivery volumes were 15 ml for each dog was and the delivery velocity was 1 ml/min. The indexes were recorded at 5, 10, 15, 20, 30, 45, 60, 90 and 120 mins after drug administration. At the end of experiment, the hearts were excised and weighted. The myocardial blood flow for per hectogram (CF), coronary resistance (CR), cardiac index (CI), left ventricular work (LVW) and total peripheral resistance (TPR) were calculated according to the following formulae: CF=CBF×[…]/heart weight CR=MAP/CF CI=CO/0.11×(body weight)^2/3 LVW=CO×(MAP−5)×1.052×0.0136 TPR=MAP×79.92/CO
Data are expressed as mean±SD ( x±s), the paired t-test was used to compare the significance between before and after administration, the unpaired t-test was adopted for comparison between groups.

CC(C)(O)[C@@H]1CC[C@](C)([C@H]2[C@@H](O)C[C@@]3(C)C4C[C@H](OC5OC(CO)C(O)C(O)C5O)C5C(C)(C)[C@@H](O)CC[C@@]56C[C@@]46CC[C@]23C)O1 (stereo partly drawn) [CMG, Cycloastragenol-6-O-β-D-glucoside]
LVEDP maximum decrease: 1.1±0.4 mmHg
CF (5 min after administration): 57 ± 21.7 ml/min/100 g
CF change vs before administration (5 min after administration): (−0.7 ± 3.6) ml/min/100 g
CI (5 min after administration): 2.15 ± 0.65 L/min/m^2
CI change vs before administration (5 min after administration): (0.07 ± 0.16) L/min/m^2
CO (5 min after administration): 1.24 ± 0.38 L/min
CO change vs before administration (5 min after administration): (0.04 ± 0.09) L/min
CR (5 min after administration): 1.35 ± 0.42 mmHg/ml/min/100 g
CR change vs before administration (5 min after administration): (−0.01 ± 0.08) mmHg/ml/min/100 g
LVEDP (5 min after administration): 1.0 ± 2.3 mmHg
LVEDP change vs before administration (5 min after administration): (−0.78 ± 0.61) mmHg
LVP (5 min after administration): 105 ± 21 mmHg
LVP change vs before administration (5 min after administration): (0.1 ± 3.4) mmHg
LVW (5 min after administration): 1.15 ± 0.43 kg · m
LVW change vs before administration (5 min after administration): (0.03 ± 0.17) kg · m
TPR (5 min after administration): 4967 ± 2135 dyn · s/cm^5
TPR change vs before administration (5 min after administration): (−183 ± 313) dyn · s/cm^5
dp/dt (5 min after administration): 1205 ± 417 mmHg/s
dp/dt change vs before administration (5 min after administration): (56 ± 94) mmHg/s
−dp/dt (5 min after administration): −865 ± 286 mmHg/s
−dp/dt change vs before administration (5 min after administration): (22 ± 65) mmHg/s
CF (10 min after administration): 55.9 ± 21.6 ml/min/100 g
CF change vs before administration (10 min after administration): (−1.8 ± 5.0) ml/min/100 g
CI (10 min after administration): 2.26 ± 0.55 L/min/m^2
CI change vs before administration (10 min after administration): (0.18 ± 0.20) L/min/m^2
CO (10 min after administration): 1.31 ± 0.32 L/min
CO change vs before administration (10 min after administration): (0.10 ± 0.12) L/min
CR (10 min after administration): 1.36 ± 0.42 mmHg/ml/min/100 g
CR change vs before administration (10 min after administration): (0.00 ± 0.11) mmHg/ml/min/100 g
LVEDP (10 min after administration): 1.0 ± 2.3 mmHg
LVEDP change vs before administration (10 min after administration): (−0.73 ± 0.49) mmHg
LVP (10 min after administration): 103 ± 22 mmHg
LVP change vs before administration (10 min after administration): (−1.5 ± 3.7) mmHg
LVW (10 min after administration): 1.18 ± 0.34 kg · m
LVW change vs before administration (10 min after administration): (0.06 ± 0.19) kg · m
TPR (10 min after administration): 4568 ± 1871 dyn · s/cm^5
TPR change vs before administration (10 min after administration): (−582 ± 652) dyn · s/cm^5
dp/dt (10 min after administration): 1173 ± 407 mmHg/s
dp/dt change vs before administration (10 min after administration): (23 ± 110) mmHg/s
−dp/dt (10 min after administration): −883 ± 288 mmHg/s
−dp/dt change vs before administration (10 min after administration): (5 ± 36) mmHg/s
CF (15 min after administration): 55.9 ± 22.2 ml/min/100 g
CF change vs before administration (15 min after administration): (−1.8 ± 5.8) ml/min/100 g
CI (15 min after administration): 2.09 ± 0.45 L/min/m^2
CI change vs before administration (15 min after administration): (0.01 ± 0.24) L/min/m^2
CO (15 min after administration): 1.21 ± 0.26 L/min
CO change vs before administration (15 min after administration): (0.00 ± 0.15) L/min
CR (15 min after administration): 1.32 ± 0.38 mmHg/ml/min/100 g
CR change vs before administration (15 min after administration): (−0.03 ± 0.14) mmHg/ml/min/100 g
LVEDP (15 min after administration): 1.0 ± 2.3 mmHg
LVEDP change vs before administration (15 min after administration): (−0.73 ± 0.60) mmHg
LVP (15 min after administration): 103 ± 25 mmHg
LVP change vs before administration (15 min after administration): (−2.0 ± 4.7) mmHg
LVW (15 min after administration): 1.08 ± 0.31 kg · m
LVW change vs before administration (15 min after administration): (−0.04 ± 0.19) kg · m
TPR (15 min after administration): 4612 ± 1333 dyn · s/cm^5
TPR change vs before administration (15 min after administration): (−538 ± 1075) dyn · s/cm^5
dp/dt (15 min after administration): 1170 ± 449 mmHg/s
dp/dt change vs before administration (15 min after administration): (20 ± 113) mmHg/s
−dp/dt (15 min after administration): −875 ± 288 mmHg/s
−dp/dt change vs before administration (15 min after administration): (13 ± 49) mmHg/s
CF (20 min after administration): 54.3 ± 20.4 ml/min/100 g
CF change vs before administration (20 min after administration): (−3.4 ± 4.4) ml/min/100 g
CI (20 min after administration): 2.05 ± 0.45 L/min/m^2
CI change vs before administration (20 min after administration): (−0.03 ± 0.26) L/min/m^2
CO (20 min after administration): 1.19 ± 0.27 L/min
CO change vs before administration (20 min after administration): (−0.02 ± 0.15) L/min
CR (20 min after administration): 1.35 ± 0.39 mmHg/ml/min/100 g
CR change vs before administration (20 min after administration): (0.00 ± 0.13) mmHg/ml/min/100 g
LVEDP (20 min after administration): 1.2 ± 2.4 mmHg
LVEDP change vs before administration (20 min after administration): (−0.62 ± 0.47) mmHg
LVP (20 min after administration): 101 ± 21 mmHg
LVP change vs before administration (20 min after administration): (−3.8 ± 5.1) mmHg
LVW (20 min after administration): 1.04 ± 0.23 kg · m
LVW change vs before administration (20 min after administration): (−0.08 ± 0.21) kg · m
TPR (20 min after administration): 4882 ± 1971 dyn · s/cm^5
TPR change vs before administration (20 min after administration): (−268 ± 672) dyn · s/cm^5
dp/dt (20 min after administration): 1144 ± 452 mmHg/s
dp/dt change vs before administration (20 min after administration): (−6 ± 113) mmHg/s
−dp/dt (20 min after administration): −830 ± 277 mmHg/s
−dp/dt change vs before administration (20 min after administration): (58 ± 77) mmHg/s
CF (30 min after administration): 52.5 ± 16.9 ml/min/100 g
CF change vs before administration (30 min after administration): (−5.2 ± 7.9) ml/min/100 g
CI (30 min after administration): 1.98 ± 0.44 L/min/m^2
CI change vs before administration (30 min after administration): (−0.10 ± 0.27) L/min/m^2
CO (30 min after administration): 1.14 ± 0.24 L/min
CO change vs before administration (30 min after administration): (−0.07 ± 0.16) L/min
CR (30 min after administration): 1.38 ± 0.38 mmHg/ml/min/100 g
CR change vs before administration (30 min after administration): (0.02 ± 0.13) mmHg/ml/min/100 g
LVEDP (30 min after administration): 1.2 ± 2.4 mmHg
LVEDP change vs before administration (30 min after administration): (−0.58 ± 0.46) mmHg
LVP (30 min after administration): 100 ± 21 mmHg
LVP change vs before administration (30 min after administration): (−5.0 ± 7.3) mmHg
LVW (30 min after administration): 1.01 ± 0.26 kg · m
LVW change vs before administration (30 min after administration): (−0.11 ± 0.27) kg · m
TPR (30 min after administration): 5045 ± 2043 dyn · s/cm^5
TPR change vs before administration (30 min after administration): (−105 ± 498) dyn · s/cm^5
dp/dt (30 min after administration): 1170 ± 425 mmHg/s
dp/dt change vs before administration (30 min after administration): (20 ± 157) mmHg/s
−dp/dt (30 min after administration): −863 ± 258 mmHg/s
−dp/dt change vs before administration (30 min after administration): (25 ± 79) mmHg/s
CF (45 min after administration): 51.6 ± 17.1 ml/min/100 g
CF change vs before administration (45 min after administration): (−6.1 ± 8.1) ml/min/100 g
CI (45 min after administration): 2.02 ± 0.45 L/min/m^2
CI change vs before administration (45 min after administration): (−0.06 ± 0.43) L/min/m^2
CO (45 min after administration): 1.16 ± 0.22 L/min
CO change vs before administration (45 min after administration): (−0.04 ± 0.25) L/min
CR (45 min after administration): 1.42 ± 0.39 mmHg/ml/min/100 g
CR change vs before administration (45 min after administration): (0.07 ± 0.20) mmHg/ml/min/100 g
LVEDP (45 min after administration): 1.3 ± 2.2 mmHg
LVEDP change vs before administration (45 min after administration): (−0.5 ± 0.44) mmHg
LVP (45 min after administration): 101 ± 19 mmHg
LVP change vs before administration (45 min after administration): (−3.6 ± 4.6) mmHg
LVW (45 min after administration): 1.06 ± 0.31 kg · m
LVW change vs before administration (45 min after administration): (−0.06 ± 0.32) kg · m
TPR (45 min after administration): 4951 ± 1731 dyn · s/cm^5
TPR change vs before administration (45 min after administration): (−199 ± 925) dyn · s/cm^5
dp/dt (45 min after administration): 1164 ± 356 mmHg/s
dp/dt change vs before administration (45 min after administration): (14 ± 86) mmHg/s
−dp/dt (45 min after administration): −854 ± 259 mmHg/s
−dp/dt change vs before administration (45 min after administration): (34 ± 80) mmHg/s
CF (60 min after administration): 51.8 ± 15.0 ml/min/100 g
CF change vs before administration (60 min after administration): (−5.9 ± 9.9) ml/min/100 g
CI (60 min after administration): 1.92 ± 0.42 L/min/m^2
CI change vs before administration (60 min after administration): (−0.16 ± 0.37) L/min/m^2
CO (60 min after administration): 1.11 ± 0.21 L/min
CO change vs before administration (60 min after administration): (−0.10 ± 0.23) L/min
CR (60 min after administration): 1.38 ± 0.36 mmHg/ml/min/100 g
CR change vs before administration (60 min after administration): (0.03 ± 0.16) mmHg/ml/min/100 g
LVEDP (60 min after administration): 1.3 ± 2.1 mmHg
LVEDP change vs before administration (60 min after administration): (−0.46 ± 0.41) mmHg
LVP (60 min after administration): 101 ± 19 mmHg
LVP change vs before administration (60 min after administration): (−4.1 ± 4.9) mmHg
LVW (60 min after administration): 1.00 ± 0.34 kg · m
LVW change vs before administration (60 min after administration): (−0.12 ± 0.33) kg · m
TPR (60 min after administration): 5112 ± 1599 dyn · s/cm^5
TPR change vs before administration (60 min after administration): (−38 ± 811) dyn · s/cm^5
dp/dt (60 min after administration): 1126 ± 375 mmHg/s
dp/dt change vs before administration (60 min after administration): (−24 ± 57) mmHg/s
−dp/dt (60 min after administration): −841 ± 249 mmHg/s
−dp/dt change vs before administration (60 min after administration): (47 ± 92) mmHg/s
CF (90 min after administration): 53.7 ± 14.3 ml/min/100 g
CF change vs before administration (90 min after administration): (−4.0 ± 10.4) ml/min/100 g
CI (90 min after administration): 1.83 ± 0.36 L/min/m^2
CI change vs before administration (90 min after administration): (−0.25 ± 0.39) L/min/m^2
CO (90 min after administration): 1.06 ± 0.20 L/min
